{
  "source": "ChEMBL document CHEMBL1201862",
  "about": "“PubChem BioAssay data set” (2004)",
  "key": {"Ephrin type-A receptor 4": {"target": "Ephrin type-A receptor 4 (Mus musculus, UniProt Q03137)", "sequence (Q03137 whole entry)": "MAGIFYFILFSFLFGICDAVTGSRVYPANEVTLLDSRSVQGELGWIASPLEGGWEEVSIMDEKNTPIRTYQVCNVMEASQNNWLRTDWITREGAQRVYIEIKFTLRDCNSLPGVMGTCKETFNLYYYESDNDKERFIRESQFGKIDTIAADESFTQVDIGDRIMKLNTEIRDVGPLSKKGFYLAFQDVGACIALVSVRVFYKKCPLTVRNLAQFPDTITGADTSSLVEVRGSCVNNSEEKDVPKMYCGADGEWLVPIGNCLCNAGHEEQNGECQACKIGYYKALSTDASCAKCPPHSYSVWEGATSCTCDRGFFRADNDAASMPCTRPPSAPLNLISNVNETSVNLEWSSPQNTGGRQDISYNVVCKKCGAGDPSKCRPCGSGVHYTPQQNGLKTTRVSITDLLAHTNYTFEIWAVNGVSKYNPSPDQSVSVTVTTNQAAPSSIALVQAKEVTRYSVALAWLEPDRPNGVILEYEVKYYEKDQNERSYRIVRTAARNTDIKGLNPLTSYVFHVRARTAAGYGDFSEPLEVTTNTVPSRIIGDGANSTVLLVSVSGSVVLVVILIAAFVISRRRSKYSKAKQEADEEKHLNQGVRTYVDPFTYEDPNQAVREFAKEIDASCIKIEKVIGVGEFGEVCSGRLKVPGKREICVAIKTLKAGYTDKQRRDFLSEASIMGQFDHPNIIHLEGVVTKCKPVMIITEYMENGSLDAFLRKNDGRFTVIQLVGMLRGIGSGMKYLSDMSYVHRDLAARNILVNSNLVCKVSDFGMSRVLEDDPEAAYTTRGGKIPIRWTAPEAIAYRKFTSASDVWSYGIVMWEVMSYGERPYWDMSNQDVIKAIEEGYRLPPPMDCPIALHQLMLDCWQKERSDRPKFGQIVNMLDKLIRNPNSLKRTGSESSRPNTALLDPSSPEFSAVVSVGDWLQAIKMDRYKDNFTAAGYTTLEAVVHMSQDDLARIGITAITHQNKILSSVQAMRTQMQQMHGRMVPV", "test": "inhibitors of EphA4 binding to KYL peptide, primary screen, biochemical, colorimetric, mouse EphA4 (AID 689)", "format": "functional"}, "[1]": {"target": "G-protein coupled receptor 55 (Homo sapiens, UniProt Q9Y2T6)", "sequence (Q9Y2T6 whole entry)": "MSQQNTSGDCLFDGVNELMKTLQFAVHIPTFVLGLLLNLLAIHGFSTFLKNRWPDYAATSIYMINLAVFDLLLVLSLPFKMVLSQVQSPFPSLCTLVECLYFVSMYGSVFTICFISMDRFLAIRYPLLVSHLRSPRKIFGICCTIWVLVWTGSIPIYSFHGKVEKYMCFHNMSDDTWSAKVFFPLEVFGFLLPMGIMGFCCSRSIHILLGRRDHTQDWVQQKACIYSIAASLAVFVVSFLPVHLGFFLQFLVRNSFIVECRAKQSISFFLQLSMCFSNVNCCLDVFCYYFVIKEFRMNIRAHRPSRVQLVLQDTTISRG", "test": "GPR55 agonists via beta-arrestin recruitment, primary screen, imaging, U2OS cells, beta-arrestin-GFP redistribution (AID 1961)", "format": "functional"}, "Troponin, cardiac muscle": {"target": "Troponin, cardiac muscle (Homo sapiens, UniProt P19429+P45379+P63316)", "test": "Fluorescence-based biochemical high throughput dose response assay for activators of the calcium sensitivity of cardiac Regulated Thin Filaments (RTF). [Related pubchem assays (depositor defined):AID493008, AID493018, AID504382, AID504383]", "format": "protein-complex assay"}, "[2]": {"target": "Intestinal-type alkaline phosphatase (Mus musculus, UniProt P24822)", "sequence (P24822 whole entry)": "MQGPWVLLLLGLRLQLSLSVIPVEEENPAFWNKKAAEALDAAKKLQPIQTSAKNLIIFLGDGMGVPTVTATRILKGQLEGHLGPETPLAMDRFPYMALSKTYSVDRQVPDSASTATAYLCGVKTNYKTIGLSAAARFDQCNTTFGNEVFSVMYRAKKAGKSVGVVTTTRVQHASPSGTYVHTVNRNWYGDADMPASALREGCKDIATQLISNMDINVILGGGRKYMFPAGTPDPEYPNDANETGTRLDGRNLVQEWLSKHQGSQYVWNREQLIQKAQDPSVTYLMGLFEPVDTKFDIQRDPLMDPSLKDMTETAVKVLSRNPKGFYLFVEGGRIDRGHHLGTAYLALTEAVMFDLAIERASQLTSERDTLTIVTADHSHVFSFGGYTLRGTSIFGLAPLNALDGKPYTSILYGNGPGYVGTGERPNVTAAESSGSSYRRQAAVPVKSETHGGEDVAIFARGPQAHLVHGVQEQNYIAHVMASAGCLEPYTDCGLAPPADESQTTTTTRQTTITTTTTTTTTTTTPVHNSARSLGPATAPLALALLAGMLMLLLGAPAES", "test": "PubChem AID 488785", "format": "functional"}, "[3]": {"target": "Alkaline phosphatase, placental type (Homo sapiens, UniProt P05187)", "sequence (P05187 whole entry)": "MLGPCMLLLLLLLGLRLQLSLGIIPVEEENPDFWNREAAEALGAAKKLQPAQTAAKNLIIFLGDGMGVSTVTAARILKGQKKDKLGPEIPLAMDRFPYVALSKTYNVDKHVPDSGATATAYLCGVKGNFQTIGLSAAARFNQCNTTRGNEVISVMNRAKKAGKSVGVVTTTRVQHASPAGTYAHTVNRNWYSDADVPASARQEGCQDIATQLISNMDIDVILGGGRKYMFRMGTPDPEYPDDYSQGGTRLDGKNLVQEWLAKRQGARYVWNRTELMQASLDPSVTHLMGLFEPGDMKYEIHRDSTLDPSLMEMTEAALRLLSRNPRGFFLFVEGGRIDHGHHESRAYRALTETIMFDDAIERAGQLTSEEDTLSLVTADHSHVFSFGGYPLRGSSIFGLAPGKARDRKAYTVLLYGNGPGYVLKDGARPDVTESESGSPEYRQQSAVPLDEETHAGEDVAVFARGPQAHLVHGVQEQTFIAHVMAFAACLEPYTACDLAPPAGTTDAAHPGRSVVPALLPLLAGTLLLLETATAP", "test": "PLAP enzyme inhibitors, confirmation, biochemical, luminescence (AID 1512)", "format": "functional"}, "[4]": {"target": "Intestinal-type alkaline phosphatase (Homo sapiens, UniProt P09923)", "sequence (P09923 whole entry)": "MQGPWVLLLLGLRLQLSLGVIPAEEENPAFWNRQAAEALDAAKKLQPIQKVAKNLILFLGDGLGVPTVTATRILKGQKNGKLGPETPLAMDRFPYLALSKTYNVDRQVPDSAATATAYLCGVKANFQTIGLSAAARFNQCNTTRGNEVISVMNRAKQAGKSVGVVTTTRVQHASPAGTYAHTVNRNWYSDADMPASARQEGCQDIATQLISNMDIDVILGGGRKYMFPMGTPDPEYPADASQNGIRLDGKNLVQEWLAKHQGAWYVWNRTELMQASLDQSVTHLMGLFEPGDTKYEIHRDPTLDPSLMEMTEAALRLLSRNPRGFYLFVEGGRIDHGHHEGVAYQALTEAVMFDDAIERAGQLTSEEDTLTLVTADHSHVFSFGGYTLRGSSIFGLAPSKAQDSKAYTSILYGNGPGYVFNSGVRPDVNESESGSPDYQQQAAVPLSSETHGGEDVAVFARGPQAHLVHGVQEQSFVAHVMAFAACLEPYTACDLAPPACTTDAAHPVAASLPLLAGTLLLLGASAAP", "test": "inhibition of human intestinal alkaline phosphatase – biochemical, dose response (AID 488876)", "format": "functional"}, "[5]": {"target": "Glutathione S-transferase omega-1 (Homo sapiens, UniProt P78417)", "sequence (P78417 whole entry)": "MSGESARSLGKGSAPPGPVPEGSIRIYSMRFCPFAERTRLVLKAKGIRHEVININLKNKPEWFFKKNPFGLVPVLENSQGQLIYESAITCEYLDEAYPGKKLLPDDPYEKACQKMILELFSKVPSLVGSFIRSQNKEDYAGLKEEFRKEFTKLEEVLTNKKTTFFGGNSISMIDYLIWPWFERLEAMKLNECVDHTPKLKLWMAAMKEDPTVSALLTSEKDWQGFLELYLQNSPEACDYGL", "test": "GSTO1 inhibitor potency, recombinant enzyme, late-stage follow-up, biochemical, SE-Rh probe, in-gel fluorescence, powder samples, set 2 (AID 463142)", "format": "functional"}, "Mu-type opioid receptor": {"target": "Mu-type opioid receptor (Homo sapiens, UniProt P35372)", "sequence (P35372 whole entry)": "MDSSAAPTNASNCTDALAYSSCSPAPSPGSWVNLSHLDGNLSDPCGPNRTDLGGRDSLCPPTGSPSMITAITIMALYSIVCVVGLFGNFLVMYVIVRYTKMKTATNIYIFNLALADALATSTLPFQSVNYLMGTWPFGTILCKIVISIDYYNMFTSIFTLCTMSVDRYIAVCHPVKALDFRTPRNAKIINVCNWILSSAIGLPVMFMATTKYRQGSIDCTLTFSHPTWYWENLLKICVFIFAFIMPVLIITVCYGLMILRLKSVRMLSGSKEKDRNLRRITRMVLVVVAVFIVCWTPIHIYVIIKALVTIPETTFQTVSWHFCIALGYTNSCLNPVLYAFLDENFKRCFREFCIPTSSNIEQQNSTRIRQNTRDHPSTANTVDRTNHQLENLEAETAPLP", "test": "SAR Analysis of Antagonists of the MOR Receptor using an Image-Based Assay - Set 3. [Related pubchem assays (depositor defined):AID1777, AID1785, AID1786, AID1966, AID2133, AID2136, AID2284, AID2285, AID2420]", "format": "functional"}, "[6]": {"target": "Delta-type opioid receptor (Homo sapiens, UniProt P41143)", "sequence (P41143 whole entry)": "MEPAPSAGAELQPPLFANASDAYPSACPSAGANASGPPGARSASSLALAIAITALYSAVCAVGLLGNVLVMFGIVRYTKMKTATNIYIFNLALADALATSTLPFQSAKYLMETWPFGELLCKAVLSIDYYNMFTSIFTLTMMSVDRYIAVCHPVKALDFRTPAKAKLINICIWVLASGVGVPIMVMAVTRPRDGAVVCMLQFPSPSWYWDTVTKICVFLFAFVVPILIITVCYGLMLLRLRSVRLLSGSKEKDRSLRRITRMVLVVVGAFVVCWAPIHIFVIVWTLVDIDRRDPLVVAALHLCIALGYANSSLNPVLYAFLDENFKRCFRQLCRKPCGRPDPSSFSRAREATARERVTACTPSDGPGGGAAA", "test": "SAR Analysis of Antagonists of the DOR Receptor using an Image-Based Assay - Set 3. [Related pubchem assays (depositor defined):AID1777, AID1785]", "format": "functional"}, "[7]": {"target": "T1, Kappa-type opioid receptor (Homo sapiens, UniProt P41145)", "T1 sequence (P41145 whole entry)": "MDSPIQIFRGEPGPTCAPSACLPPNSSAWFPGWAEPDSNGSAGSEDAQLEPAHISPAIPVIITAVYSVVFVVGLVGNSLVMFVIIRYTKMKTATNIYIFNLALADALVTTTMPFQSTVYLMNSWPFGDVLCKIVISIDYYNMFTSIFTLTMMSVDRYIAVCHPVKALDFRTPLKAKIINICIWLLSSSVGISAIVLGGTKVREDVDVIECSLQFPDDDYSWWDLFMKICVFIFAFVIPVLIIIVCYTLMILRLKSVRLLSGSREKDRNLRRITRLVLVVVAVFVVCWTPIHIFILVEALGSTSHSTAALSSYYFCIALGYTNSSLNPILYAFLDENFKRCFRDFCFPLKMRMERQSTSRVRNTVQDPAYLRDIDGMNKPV", "test": "SAR analysis of small molecule antagonists of the kappa opioid receptor via a luminescent beta-arrestin assay - Set 3. [Related pubchem assays (depositor defined):AID1777, AID1778, AID1785, AID1786, AID1966, AID2133, AID2136, AID2285, AID2495]", "format": "functional"}, "[8]": {"target": "T1, Kappa-type opioid receptor", "test": "SAR analysis of Antagonists of the Kappa Opioid Receptor (KOR) using an Image-Based Assay - Set 4. [Related pubchem assays (depositor defined):AID1777, AID1785]", "format": "functional"}},
  "note": "The source made the active and inactive calls.",
  "data": [
    {"smiles": "CCCCN1C(=O)/C(=C/C=C2\\N(C)c3ccccc3C2(C)C)SC1=S", "values": [
      {"measurement": "IC50", "setting": "Ephrin type-A receptor 4", "value": "5.34 µM (active)"},
      {"measurement": "EC50", "setting": "[1]", "value": "0.731 µM (active)"}
    ]},
    {"smiles": "Cc1nnc(SCC(=O)NC(C)(C)C)n1C1CCCCC1", "values": [
      {"measurement": "EC50", "setting": "Troponin, cardiac muscle", "value": "> 71.5 µM (inactive)"}
    ]},
    {"smiles": "C=C(C)c1cccc(C(C)(C)NC(=O)NC(c2ccccc2)c2ccc(OC)cc2)c1", "note": "(stereo unspecified)", "values": [
      {"measurement": "IC50", "setting": "[2]", "value": "7.54 µM (active)"},
      {"measurement": "IC50", "setting": "[3]", "value": "> 100 µM (inactive)"},
      {"measurement": "IC50", "setting": "[4]", "value": "9.59 µM (active)"}
    ]},
    {"smiles": "O=C(CCl)N(CCCCCNC(=O)C(F)(F)F)c1ccc([N+](=O)[O-])cc1", "values": [
      {"measurement": "IC50", "setting": "[5]", "value": "0.034 µM (active)"}
    ]},
    {"smiles": "O=C(Cn1c(=O)c2cccn2c2cccnc21)NCCCN1CCN(c2ccc3c(c2)OCO3)CC1", "values": [
      {"measurement": "IC50", "setting": "Mu-type opioid receptor", "value": "> 32 µM (inactive)"},
      {"measurement": "IC50", "setting": "[6]", "value": "> 32 µM (inactive)"},
      {"measurement": "IC50", "setting": "[7]", "value": "4.23 µM (active)"},
      {"measurement": "IC50", "setting": "[8]", "value": "0.776 µM (active)"}
    ]}
  ]
}
